What was measured:
Human LPA3 = biological target: T1, Human LPA3 (Homo sapiens, UniProt Q9UBY5); assay: LPA3 calcium flux assay; format: cell-based; details: CHO cells expressing human LPA3, 10 nM LPA; read-out: HLPA3 Ca Flux IC50
T1 construct: The full-length cDNA fragment for human LPA3 was obtained by PCR from the vector; expressed in transfected cells; cDNA from the Missouri S&T cDNA Resource Center
T1 sequence (Q9UBY5 1-353): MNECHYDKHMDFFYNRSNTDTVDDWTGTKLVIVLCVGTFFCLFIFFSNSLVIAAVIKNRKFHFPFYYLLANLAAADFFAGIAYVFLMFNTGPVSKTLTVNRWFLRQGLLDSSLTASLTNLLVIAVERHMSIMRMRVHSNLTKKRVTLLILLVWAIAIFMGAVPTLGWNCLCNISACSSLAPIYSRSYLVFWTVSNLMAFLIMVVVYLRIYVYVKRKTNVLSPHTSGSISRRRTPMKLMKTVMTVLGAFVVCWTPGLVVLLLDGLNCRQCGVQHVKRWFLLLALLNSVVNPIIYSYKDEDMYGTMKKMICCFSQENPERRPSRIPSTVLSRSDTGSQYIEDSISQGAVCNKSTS
Description: A vector containing the human LPA3 receptor cDNA was obtained from the Missouri S&T cDNA Resource Center (www.cdna.org). The full-length cDNA fragment for human LPA3 was obtained by PCR from the vector. The nucleotide sequence of the cloned human LPA3 was determined by sequencing and confirmed to be identical to the published human LPA3 sequence (NCBI accession number NM_012152). The cDNA was cloned into the pcDNA5/FRT expression plasmid and transfected in CHO cells using lipofectamine 2000 (Invitrogen Corp., USA). Clones stably expressing human LPA3 were selected using hygromycin and identified as cells that show Ca-influx in response to LPA.
(§1) Human LPA1 or LPA3 expressing CHO cells are seeded at 20,000-45,000 cells per well in a 96-well poly-D-lysine coated plate one or two days before the assay. Prior to the assay, the cells are washed once with PBS and then cultured in serum-free media overnight. On the day of the assay, a calcium indicator dye (Calcium 4, Molecular Devices) in assay buffer (HBSS with Ca^2+and Mg^2+ and containing 20 mM Hepes and 0.3% fatty-acid free human serum albumin) is added to each well and incubation continued for 1 hour at 37° C. 10 μl of test compounds in 2.5% DMSO are added to the cells and incubation continued at room temperature for 30 minutes. Cells are the stimulated by the addition of 10 nM LPA and intracellular Ca^2+ measured using the Flexstation 3 (Molecular Devices). IC50s are determined using Graphpad prism analysis of drug titration curves.

Human LPA1 = biological target: T2, Human LPA1 (Homo sapiens, UniProt Q92633); assay: LPA1 calcium flux assay; format: cell-based; details: CHO cells expressing human LPA1, 10 nM LPA; read-out: HLPA1 Ca Flux IC50
T2 construct: the full-length cDNA for human LPA1 was obtained by PCR of the reverse transcription reaction; expressed in transfected cells
Description: A 1.1 kb cDNA encoding the human LPA1 receptor was cloned from human lung. Human lung RNA (Clontech Laboratories, Inc. USA) was reverse transcribed using the RETROscript kit (Ambion, Inc.) and the full-length cDNA for human LPA1 was obtained by PCR of the reverse transcription reaction. The nucleotide sequence of the cloned human LPA1 was determined by sequencing and confirmed to be identical to the published human LPA1 sequence (An et al. Biochem. Biophys. Res. Commun. 231:619 (1997). The cDNA was cloned into the pcDNA5/FRT expression plasmid and transfected in CHO cells using lipofectamine 2000 (Invitrogen Corp., USA). Clones stably expressing human LPA1 were selected using hygromycin and identified as cells that show Ca-influx in response to LPA.
as §1

T2 sequence (Q92633 whole entry): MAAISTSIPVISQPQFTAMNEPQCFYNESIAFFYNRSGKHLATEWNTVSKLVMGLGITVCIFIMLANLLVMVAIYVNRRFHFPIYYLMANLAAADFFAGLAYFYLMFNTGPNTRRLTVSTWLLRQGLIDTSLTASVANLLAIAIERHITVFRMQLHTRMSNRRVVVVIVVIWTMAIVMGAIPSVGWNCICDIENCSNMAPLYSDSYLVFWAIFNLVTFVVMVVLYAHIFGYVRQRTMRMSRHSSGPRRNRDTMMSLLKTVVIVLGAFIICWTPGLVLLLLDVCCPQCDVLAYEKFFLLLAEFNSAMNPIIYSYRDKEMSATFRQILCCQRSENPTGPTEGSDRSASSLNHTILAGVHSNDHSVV

SMILES	IC50 (Human LPA3) [µM]	IC50 (Human LPA1) [µM]
Cc1noc(-c2ccc(-c3ccc(C4(C(=O)O)CCC4)cc3)cc2)c1NC(=O)O[C@H](C)c1ccccc1 [Compound 10, 1-{4′-[3-Methyl-4-((R)-1-phenyl-ethoxycarbonylamino)-isoxazol-5-yl]-biphenyl-4-yl}-cyclobutanecarboxylic acid]	1 to 10	< 0.3
Cc1noc(-c2ccc(-c3ccc(C4(C(=O)O)CC4)cc3)cc2)c1NC(=O)OC(C)c1cccc(O)c1 (centres unmarked) [Compound 28, 1-(4′-{4-[1-(3-Hydroxy-phenyl)-ethoxycarbonylamino]-3-methyl-isoxazol-5-yl}-biphenyl-4-yl)-cyclopropanecarboxylic acid]	> 10	< 0.3
COc1cc(-c2ccc(C3(C(=O)O)CC3)cc2)ccc1-c1onc(C)c1NC(=O)O[C@H](C)c1cccc(C(F)(F)F)c1 [Compound 31, 1-(3′-Methoxy-4′-{3-methyl-4-[(R)-1-(3-trifluoromethyl-phenyl)-ethoxycarbonylamino]-isoxazol-5-yl}-biphenyl-4-yl)-cyclopropanecarboxylic acid]	< 0.3	< 0.3
Cc1noc(-c2ccc(-c3ccc(C4(C(=O)O)CC4)cc3)cc2)c1NC(=O)O[C@H](C)C1CCC1 [Compound 20, 1-{4′-[4-((R)-1-Cyclobutyl-ethoxycarbonylamino)-3-methyl-isoxazol-5-yl]-biphenyl-4-yl}-cyclopropanecarboxylic acid]	1 to 10	< 0.3
Cc1noc(-c2ccc(-c3ccc(C4(C(=O)O)CC4)cc3)cc2)c1NC(=O)OC(C)c1ccc(C(F)(F)F)cc1 (single isomer, unassigned) [Compound 13, 1-(4′-{3-Methyl-4-[1-(4-trifluoromethyl-phenyl)-ethoxycarbonylamino]-isoxazol-5-yl}-biphenyl-4-yl)-cyclopropanecarboxylic acid]		1 to 10
Cc1ccccc1[C@@H](C)OC(=O)Nc1c(C)noc1-c1ccc(-c2ccc(C3(C(=O)O)CC3)cc2)cc1 [Compound 3, 1-{4′-[3-Methyl-4-((R)-1-o-tolyl-ethoxycarbonylamino)-isoxazol-5-yl]-biphenyl-4-yl}-cyclopropanecarboxylic acid]	0.3 to 1	< 0.3
Cc1noc(-c2ccc(-c3ccc(C4(C(=O)O)CC4)cc3)cc2)c1NC(=O)O[C@H](C)c1ccc(C#N)cc1 [Compound 18, 1-(4′-{4-[(R)-1-(4-Cyano-phenyl)-ethoxycarbonylamino]-3-methyl-isoxazol-5-yl}-biphenyl-4-yl)-cyclopropanecarboxylic acid]	1 to 10	< 0.3
Cc1noc(-c2ccc(-c3ccc(C4(C(=O)O)CCCC4)cc3)cc2)c1NC(=O)O[C@H](C)c1ccccc1 [Compound 11, 1-{4′-[3-Methyl-4-((R)-1-phenyl-ethoxycarbonylamino)-isoxazol-5-yl]-biphenyl-4-yl}-cyclopentanecarboxylic acid]	1 to 10	< 0.3
Cc1noc(-c2ccc(-c3ccc(C4(C(=O)O)CC4)cc3)cc2)c1NC(=O)O[C@H](C)c1cccc(C(F)(F)F)c1 [Compound 22, 1-(4′-{3-Methyl-4-[(R)-1-(3-trifluoromethyl-phenyl)-ethoxycarbonylamino]-isoxazol-5-yl}-biphenyl-4-yl)-cyclopropanecarboxylic acid]	< 0.3	< 0.3
Cc1noc(-c2ccc(-c3ccc(C4(C(=O)O)CC4)cc3)cc2)c1NC(=O)OC(C)c1cccc(Br)c1 (centres unmarked) [Compound 25, 1-(4′-{4-[1-(3-Bromo-phenyl)-ethoxycarbonylamino]-3-methyl-isoxazol-5-yl}-biphenyl-4-yl)-cyclopropanecarboxylic acid]	0.3 to 1	< 0.3
CCc1noc(-c2ccc(-c3ccc(C4(C(=O)O)CC4)cc3)cc2)c1NC(=O)O[C@H](C)c1cccc(C(F)(F)F)c1 [Compound 30, 1-(4′-{3-Ethyl-4-[(R)-1-(3-trifluoromethyl-phenyl)-ethoxycarbonylamino]-isoxazol-5-yl}-biphenyl-4-yl)-cyclopropanecarboxylic acid]	< 0.3	< 0.3
Cc1noc(-c2ccc(-c3ccc(C4(C(=O)O)CC4)cc3)cc2)c1NC(=O)O[C@@H](C)c1ccccc1 [Compound 27, 1-{4′-[3-Methyl-4-((S)-1-phenyl-ethoxycarbonylamino)-isoxazol-5-yl]-biphenyl-4-yl}-cyclopropanecarboxylic acid]	> 10	< 0.3
Cc1noc(-c2ccc(-c3ccc(C4(C(=O)NS(C)(=O)=O)CC4)cc3)cc2)c1NC(=O)O[C@H](C)c1cccc(C(F)(F)F)c1 [Compound 40, {5-[4′-(1-Methanesulfonylaminocarbonyl-cyclopropyl)-biphenyl-4-yl]-3-methyl-isoxazol-4-yl}-carbamic acid (R)-1-(3-trifluoromethyl-phenyl)-ethyl ester]	0.3 to 1	< 0.3

Next, values leading:

IC50 (Human LPA3) [µM]	IC50 (Human LPA1) [µM]	SMILES
1 to 10	< 0.3	Cc1noc(-c2ccc(-c3ccc(C4(C(=O)O)CC4)cc3)cc2)c1NC(=O)OC(C)c1ccc(C(F)(F)F)cc1 (single isomer, unassigned) [Compound 14, 1-(4′-{3-Methyl-4-[1-(4-trifluoromethyl-phenyl)-ethoxycarbonylamino]-isoxazol-5-yl}-biphenyl-4-yl)-cyclopropanecarboxylic acid]
	< 0.3	COc1ccccc1C(C)OC(=O)Nc1c(C)noc1-c1ccc(-c2ccc(C3(C(=O)O)CC3)cc2)cc1 (centres unmarked) [Compound 12, 1-(4′-{4-[1-(2-Methoxy-phenyl)-ethoxycarbonylamino]-3-methyl-isoxazol-5-yl}-biphenyl-4-yl)-cyclopropanecarboxylic acid]
1 to 10	< 0.3	Cc1noc(-c2ccc(-c3ccc(C4(C(=O)O)CC4)cc3)cc2)c1NC(=O)O[C@H](C)c1cc(Br)cc(Br)c1 [Compound 32, 1-(4′-{4-[(R)-1-(3,5-Dibromo-phenyl)-ethoxycarbonylamino]-3-methyl-isoxazol-5-yl}-biphenyl-4-yl)-cyclopropanecarboxylic acid]
> 10	1 to 10	Cc1noc(-c2ccc(-c3ccc(C4(C#N)CC4)cc3)cc2)c1NC(=O)O[C@H](C)c1ccccc1 [Compound 37, {5-[4′-(1-Cyano-cyclopropyl)-biphenyl-4-yl]-3-methyl-isoxazol-4-yl}-carbamic acid (R)-1-phenyl-ethyl ester]
> 10	< 0.3	Cc1noc(-c2ccc(-c3ccc(C4(C(=O)O)CC4)cc3)cc2)c1NC(=O)O[C@H](C)C1CC1 (single isomer, unassigned) [Compound 6]
	1 to 10	Cc1noc(-c2ccc(-c3ccc(C4(C(=O)O)CC4)cc3)cc2)c1NC(=O)O[C@@H](C)C1CC1 (single isomer, unassigned) [Compound 5]
> 10	< 0.3	COc1ccc([C@@H](C)OC(=O)Nc2c(C)noc2-c2ccc(-c3ccc(C4(C(=O)O)CC4)cc3)cc2)cc1 [Compound 24, 1-(4′-{4-[(R)-1-(4-Methoxy-phenyl)-ethoxycarbonylamino]-3-methyl-isoxazol-5-yl}-biphenyl-4-yl)-cyclopropanecarboxylic acid]
1 to 10	< 0.3	C[C@@H](OC(=O)Nc1cnoc1-c1ccc(-c2ccc(C3(C(=O)O)CC3)cc2)cc1)c1ccccc1 [Compound 33, 1-{4′-[4-((R)-1-Phenyl-ethoxycarbonylamino)-isoxazol-5-yl]-biphenyl-4-yl}-cyclopropanecarboxylic acid]
1 to 10	< 0.3	Cc1noc(-c2ccc(-c3ccc(C4(C(=O)O)CC4)cc3)cc2)c1NC(=O)OC(C)C1CCCCC1 (centres unmarked) [Compound 2, 1-{4′-[4-(1-Cyclohexyl-ethoxycarbonylamino)-3-methyl-isoxazol-5-yl]-biphenyl-4-yl}-cyclopropanecarboxylic acid]

Reference: patent US8273780B2, “Polycyclic antagonists of lysophosphatidic acid receptors” (Amira Pharmaceuticals, Inc., priority 2009, dated 2012)
